Patent US12077503B2, “Substituted cyclic amides and their use as herbicides” (FMC CORPORATION, priority 2015, dated 2024)

Experiments:
Format in all cases: in vivo
[1] = system: barnyardgrass (Echinochloa crus-galli); test: Test C flooded paddy test; conditions: Flood; for Plant response rating (scale of 0 to 100), Barnyardgrass: 0 is no effect, 100 is complete control
Outline: (§1)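 Compound was added directly to paddy water held 3 cm above the soil, with plants at the 2-leaf stage. Injury was scored visually versus untreated controls after 13–15 d greenhouse growth, using a 0–100 scale where 100 means complete control.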

[2] = system: sedge, umbrella (small-flower umbrella sedge, Cyperus difformis); test: Test C flooded paddy test; conditions: Flood; for Plant response rating (scale of 0 to 100), Sedge, Umbrella: 0 is no effect, 100 is complete control
Outline: as §1

rice (Oryza sativa) = test: Test C flooded paddy test; conditions: Flood; for Plant response rating (scale of 0 to 100), Rice: 0 is no effect, 100 is complete control
Outline: as §1

[3] = system: ducksalad (Heteranthera limosa); test: Test C flooded paddy test; conditions: Flood; for Plant response rating (scale of 0 to 100), Ducksalad: 0 is no effect, 100 is complete control
Outline: as §1

[4] = system: waterplantain (common waterplantain, Alisma plantago-aquatica); test: Test F flooded paddy test; conditions: Flood
From the text: (§2) Plant species in the flooded paddy test consisted of one stand of 9 or 10 water seeded rice seedlings (Rice, W. S. Jap, Oryza sativa cv. ‘Japonica—M202’ or Rice, W. S. Ind, ‘Indica’), and two stands of 3 or 4 transplanted rice seedlings (Oryza sativa cv. ‘Japonica—M202’), Monochoria (Monochoria vaginalis), sedge, umbrella (small-flower umbrella sedge, Cyperus difformis), hardstem bulrush (Scirpus juncoides), redstem (purple redstem, Ammannia coccinea), rice flatsedge (Cyperus iria), bearded sprangletop (Leptochloa fascicularis), barnyardgrass (Echinochloa crus-galli), waterplantain (common waterplantain, Alisma plantago-aquatica), and late watergrass (Echinochloa oryzicola) grown to the 2 to 2.5 leaf stage for testing. Potted plants were grown in a greenhouse with day/night temperature settings of 30/27° C., and supplemental balanced lighting was provided to maintain a 16-hour photoperiod. At time of treatment, test pots were flooded to 3 cm above the soil surface, treated by application of test compounds directly to the paddy water, and then maintained at that water depth for the duration of the test. Effects of treatments on rice and weeds were visually evaluated by comparison to untreated controls after 21 d. Plant response ratings, summarized in Table F, are based on a scale of 0 to 100 where 0 is no effect and 100 is complete control. A dash (-) response means no test result.

[5] = system: redstem (purple redstem, Ammannia coccinea); test: Test F flooded paddy test; conditions: Flood
From the text: as §2

[6] = system: transplanted rice seedlings (Oryza sativa cv. ‘Japonica—M202’); test: Test F flooded paddy test; design: key: 0 = no effect, 100 = complete control; conditions: Flood
[7] = system: oilseed rape (Brassica napus); test: Test C postemergence; conditions: scale 0 to 100, 0 no effect, 100 complete control
From the text: (§3) Seeds of plant species selected from blackgrass (Alopecurus myosuroides), ryegrass, Italian (Italian ryegrass, Lolium multiflorum), wheat (winter wheat, Triticum aestivum), Galium (catchweed bedstraw, Galium aparine), corn (Zea mays), crabgrass, large (large crabgrass, Digitaria sanguinalis), foxtail, giant (giant foxtail, Setaria faberii), johnsongrass (Sorghum halepense), lambsquarters (Chenopodium album), morningglory (Ipomoea coccinea), nutsedge, yellow (yellow nutsedge, Cyperus esculentus), pigweed (Amaranthus retroflexus), ragweed (common ragweed, Ambrosia elatior), soybean (Glycine max), barnyardgrass (Echinochloa crus-galli), oilseed rape (Brassica napus), waterhemp (common waterhemp, Amaranthus rudis) and velvetleaf (Abutilon theophrasti) were planted into a blend of loam soil and sand and treated preemergence with test chemicals formulated in a non-phytotoxic solvent mixture which included a surfactant.
(§4) At the same time, plants selected from these crop and weed species and also Kochia (Kochia scoparia), oat, wild (wild oat, Avena fatua), and chickweed (common chickweed, Stellaria media) were planted in pots containing Sunshine Redi-Earth® planting medium comprising spaghnum peat moss, vermiculite, starter nutrients and dolomitic limestone and treated with postemergence applications of test chemicals formulated in the same manner. Plants ranged in height from 2 to 18 cm (1- to 4-leaf stage) for postemergence treatments. Treated plants and controls were maintained in a greenhouse for 13 to 15 d, after which time all species were compared to controls and visually evaluated. Plant response ratings, summarized in Table C, are based on a scale of 0 to 100 where 0 is no effect and 100 is complete control. A dash (-) response means no test result.

[8] = system: johnsongrass (Sorghum halepense); test: Test C postemergence; conditions: scale 0 to 100, 0 no effect, 100 complete control
From the text: as §3, §4

corn (Zea mays) = test: Test C postemergence; conditions: scale 0 to 100, 0 no effect, 100 complete control
From the text: as §3, §4

[9] = system: blackgrass (Alopecurus myosuroides); test: Test C postemergence; conditions: scale 0 to 100, 0 no effect, 100 complete control
From the text: as §3, §4

[10] = system: chickweed (common chickweed, Stellaria media); test: Test C postemergence; conditions: scale 0 to 100, 0 no effect, 100 complete control
From the text: as §3, §4

[11] = system: Galium (catchweed bedstraw, Galium aparine); test: Test C postemergence; conditions: scale 0 to 100, 0 no effect, 100 complete control
From the text: as §3, §4

[12] = system: lambsquarters (Chenopodium album); test: Test C postemergence; conditions: scale 0 to 100, 0 no effect, 100 complete control
From the text: as §3, §4

[13] = 31 g ai/ha, scale 0 to 100 (0 no effect, 100 complete control), 13 to 15 d

SMILES: CN1C[C@H](c2ccc(F)c(F)c2)[C@@H](C(=O)Nc2cccc(F)c2F)C1=O [Compound 639, (3S,4S)—N-(2,3-difluorophenyl)-4-(3,4-difluorophenyl)-1-methyl-2-oxo-3-pyrrolidinecarboxamide]
- Plant response rating, Barnyardgrass [1, 13]: 0
- Plant response rating (scale of 0 to 100), Barnyardgrass ([1]; 62 g ai/ha): 50
- Plant response rating (scale of 0 to 100), Barnyardgrass ([1]; 125 g ai/ha): 70
- Plant response rating (scale of 0 to 100), Barnyardgrass ([1]; 250 g ai/ha): 75
- Plant response rating, Sedge, Umbrella [2, 13]: 0
- Plant response rating (scale of 0 to 100), Sedge, Umbrella ([2]; 62 g ai/ha): 0
- Plant response rating (scale of 0 to 100), Sedge, Umbrella ([2]; 125 g ai/ha): 0
- Plant response rating (scale of 0 to 100), Sedge, Umbrella ([2]; 250 g ai/ha): 0
- Plant response rating, Rice (rice (Oryza sativa); [13]): 0
- Plant response rating (scale of 0 to 100), Rice (rice (Oryza sativa); 62 g ai/ha): 0
- Plant response rating (scale of 0 to 100), Rice (rice (Oryza sativa); 125 g ai/ha): 20
- Plant response rating (scale of 0 to 100), Rice (rice (Oryza sativa); 250 g ai/ha): 20
- Plant response rating, Ducksalad [3, 13]: 50
- Plant response rating (scale of 0 to 100), Ducksalad ([3]; 62 g ai/ha): 75
- Plant response rating (scale of 0 to 100), Ducksalad ([3]; 125 g ai/ha): 90
- Plant response rating (scale of 0 to 100), Ducksalad ([3]; 250 g ai/ha): 100
- Plant response rating: Waterplantain ([4]; 32 g ai/ha): 80
- Plant response rating: Waterplantain ([4]; 64 g ai/ha): 80
- Plant response rating: Waterplantain ([4]; 125 g ai/ha): 98
- Plant response rating: Waterplantain ([4]; 250 g ai/ha): 100
- Plant response rating: Redstem ([5]; 32 g ai/ha): 0
- Plant response rating: Redstem ([5]; 64 g ai/ha): 0
- Plant response rating: Redstem ([5]; 125 g ai/ha): 0
- Plant response rating: Redstem ([5]; 250 g ai/ha): 30
- Plant response rating: Rice, Transplanted ([6]; 32 g ai/ha): 0
- Plant response rating: Rice, Transplanted ([6]; 64 g ai/ha): 15
- Plant response rating: Rice, Transplanted ([6]; 125 g ai/ha): 25
- Plant response rating: Rice, Transplanted ([6]; 250 g ai/ha): 40
- Plant response rating, Oilseed Rape ([7]; 31 g ai/ha): 30
- Plant response rating, Oilseed Rape ([7]; 62 g ai/ha): 30
- Plant response rating, Oilseed Rape ([7]; 125 g ai/ha): 40
- Plant response rating, Oilseed Rape ([7]; 250 g ai/ha): 50
- Plant response rating, Johnsongrass ([8]; 31 g ai/ha): 0
- Plant response rating, Johnsongrass ([8]; 62 g ai/ha): 0
- Plant response rating, Johnsongrass ([8]; 125 g ai/ha): 0
- Plant response rating, Johnsongrass ([8]; 250 g ai/ha): 0
- Plant response rating, Corn (corn (Zea mays); 31 g ai/ha): 0
- Plant response rating, Corn (corn (Zea mays); 62 g ai/ha): 0
- Plant response rating, Corn (corn (Zea mays); 125 g ai/ha): 0
- Plant response rating, Corn (corn (Zea mays); 250 g ai/ha): 35
- Plant response rating, Blackgrass ([9]; 31 g ai/ha): 0
- Plant response rating, Blackgrass ([9]; 62 g ai/ha): 0
- Plant response rating, Blackgrass ([9]; 125 g ai/ha): 5
- Plant response rating, Blackgrass ([9]; 250 g ai/ha): 10
- Plant response rating, Chickweed ([10]; 31 g ai/ha): 40
- Plant response rating, Chickweed ([10]; 62 g ai/ha): 40
- Plant response rating, Chickweed ([10]; 125 g ai/ha): 50
- Plant response rating, Chickweed ([10]; 250 g ai/ha): 90
- Plant response rating, Galium ([11]; 31 g ai/ha): 50
- Plant response rating, Galium ([11]; 62 g ai/ha): 50
- Plant response rating, Galium ([11]; 125 g ai/ha): 70
- Plant response rating, Galium ([11]; 250 g ai/ha): 70
- Plant response rating, Lambsquarters ([12]; 31 g ai/ha): 40
- Plant response rating, Lambsquarters ([12]; 62 g ai/ha): 75
- Plant response rating, Lambsquarters ([12]; 125 g ai/ha): 65
- Plant response rating, Lambsquarters ([12]; 250 g ai/ha): 70
